ChEMBL document CHEMBL4004803, “Syntheses and antibacterial activity of soluble 9-bromo substituted indolizinoquinoline-5,12-dione derivatives” (Eur J Med Chem, 2017)

Assays:
Staphylococcus aureus [1] = test: Antibacterial activity against methicillin-resistant Staphylococcus aureus 11703 clinical isolate after 20 to 24 hrs by two-fold microdilution method; assay type: functional
Staphylococcus aureus [2] = test: Antibacterial activity against methicillin-resistant Staphylococcus aureus 110414 clinical isolate after 20 to 24 hrs by two-fold microdilution method; assay type: functional
Staphylococcus aureus [3] = test: Antibacterial activity against methicillin-resistant Staphylococcus aureus 11819 clinical isolate after 20 to 24 hrs by two-fold microdilution method; assay type: functional
Staphylococcus aureus [4] = test: Antibacterial activity against methicillin-resistant Staphylococcus aureus 110910-2 clinical isolate after 20 to 24 hrs by two-fold microdilution method; assay type: functional
Staphylococcus aureus [5] = test: Antibacterial activity against methicillin-resistant Staphylococcus aureus 1211026 clinical isolate after 20 to 24 hrs by two-fold microdilution method; assay type: functional
Staphylococcus aureus [6] = test: Antibacterial activity against methicillin-resistant Staphylococcus aureus 110325 clinical isolate after 20 to 24 hrs by two-fold microdilution method; assay type: functional
Staphylococcus aureus [7] = test: Antibacterial activity against methicillin-resistant Staphylococcus aureus 912014 clinical isolate after 20 to 24 hrs by two-fold microdilution method; assay type: functional
Staphylococcus aureus [8] = test: Antibacterial activity against methicillin-resistant Staphylococcus aureus 305026 clinical isolate after 20 to 24 hrs by two-fold microdilution method; assay type: functional
Staphylococcus aureus [9] = test: Antibacterial activity against methicillin-resistant Staphylococcus aureus 30116-1 clinical isolate after 20 to 24 hrs by two-fold microdilution method; assay type: functional
Escherichia coli = test: Antibacterial activity against Escherichia coli ATCC 25922 after 20 to 24 hrs by two-fold microdilution method; assay type: functional
Staphylococcus aureus [10] = test: Antibacterial activity against methicillin-resistant Staphylococcus aureus 1025022 clinical isolate after 20 to 24 hrs by two-fold microdilution method; assay type: functional
Staphylococcus aureus [11] = test: Antibacterial activity against methicillin-resistant Staphylococcus aureus 3250299 clinical isolate after 20 to 24 hrs by two-fold microdilution method; assay type: functional
[12] = test system: Staphylococcus epidermidis; test: Antibacterial activity against Staphylococcus epidermidis ATCC 12228 after 20 to 24 hrs by two-fold microdilution method; assay type: functional
Staphylococcus aureus [13] = test: Antibacterial activity against methicillin-resistant Staphylococcus aureus 1101016 clinical isolate after 20 to 24 hrs by two-fold microdilution method; assay type: functional
Staphylococcus aureus [14] = test: Antibacterial activity against methicillin-resistant Staphylococcus aureus 1106003 clinical isolate after 20 to 24 hrs by two-fold microdilution method; assay type: functional
Staphylococcus aureus [15] = test: Antibacterial activity against methicillin-resistant Staphylococcus aureus 112430 clinical isolate after 20 to 24 hrs by two-fold microdilution method; assay type: functional
Staphylococcus aureus [16] = test: Antibacterial activity against methicillin-resistant Staphylococcus aureus 214026 clinical isolate after 20 to 24 hrs by two-fold microdilution method; assay type: functional
Staphylococcus aureus [17] = test: Antibacterial activity against methicillin-resistant Staphylococcus aureus 523005 clinical isolate after 20 to 24 hrs by two-fold microdilution method; assay type: functional
Staphylococcus aureus [18] = test: Antibacterial activity against methicillin-resistant Staphylococcus aureus 12308 clinical isolate after 20 to 24 hrs by two-fold microdilution method; assay type: functional
Staphylococcus aureus [19] = test: Antibacterial activity against methicillin-resistant Staphylococcus aureus 1012039 clinical isolate after 20 to 24 hrs by two-fold microdilution method; assay type: functional
Staphylococcus aureus [20] = test: Antibacterial activity against methicillin-resistant Staphylococcus aureus 1207026 clinical isolate after 20 to 24 hrs by two-fold microdilution method; assay type: functional
Staphylococcus aureus [21] = test: Antibacterial activity against methicillin-resistant Staphylococcus aureus 919205 clinical isolate after 20 to 24 hrs by two-fold microdilution method; assay type: functional
Staphylococcus aureus [22] = test: Antibacterial activity against methicillin-resistant Staphylococcus aureus 518036 clinical isolate after 20 to 24 hrs by two-fold microdilution method; assay type: functional
Staphylococcus aureus [23] = test: Antibacterial activity against methicillin-resistant Staphylococcus aureus 625032 clinical isolate after 20 to 24 hrs by two-fold microdilution method; assay type: functional
Staphylococcus aureus [24] = test: Antibacterial activity against methicillin-resistant Staphylococcus aureus 112047 clinical isolate after 20 to 24 hrs by two-fold microdilution method; assay type: functional
Staphylococcus aureus [25] = test: Antibacterial activity against methicillin-resistant Staphylococcus aureus 1212221 clinical isolate after 20 to 24 hrs by two-fold microdilution method; assay type: functional
Staphylococcus aureus [26] = test: Antibacterial activity against methicillin-resistant Staphylococcus aureus 130031 clinical isolate after 20 to 24 hrs by two-fold microdilution method; assay type: functional
Staphylococcus aureus [27] = test: Antibacterial activity against methicillin-resistant Staphylococcus aureus 125025 clinical isolate after 20 to 24 hrs by two-fold microdilution method; assay type: functional
Staphylococcus aureus [28] = test: Antibacterial activity against methicillin-resistant Staphylococcus aureus 1128040 clinical isolate after 20 to 24 hrs by two-fold microdilution method; assay type: functional
[29] = Solubility of the compound in water at 25 degC measured after shaking for 4 hrs by UV method; assay type: physicochemical; conditions: for solubility thermodynamic at 4 h: water
Staphylococcus aureus [30] = test: Antibacterial activity against methicillin-resistant Staphylococcus aureus 215073 clinical isolate after 20 to 24 hrs by two-fold microdilution method; assay type: functional
Staphylococcus aureus [31] = test: Antibacterial activity against methicillin-resistant Staphylococcus aureus 519030 clinical isolate after 20 to 24 hrs by two-fold microdilution method; assay type: functional
Staphylococcus aureus [32] = test: Antibacterial activity against methicillin-resistant Staphylococcus aureus 224001 clinical isolate after 20 to 24 hrs by two-fold microdilution method; assay type: functional
Staphylococcus aureus [33] = test: Antibacterial activity against methicillin-resistant Staphylococcus aureus 19950 clinical isolate after 20 to 24 hrs by two-fold microdilution method; assay type: functional
Staphylococcus aureus [34] = test: Antibacterial activity against methicillin-resistant Staphylococcus aureus 122045 clinical isolate after 20 to 24 hrs by two-fold microdilution method; assay type: functional
Staphylococcus aureus [35] = test: Antibacterial activity against methicillin-resistant Staphylococcus aureus 219236 clinical isolate after 20 to 24 hrs by two-fold microdilution method; assay type: functional
Enterococcus faecalis = test: Antibacterial activity against Enterococcus faecalis ATCC 29212 after 20 to 24 hrs by two-fold microdilution method; assay type: functional
Staphylococcus aureus [36] = test: Antibacterial activity against methicillin-resistant Staphylococcus aureus 814039 clinical isolate after 20 to 24 hrs by two-fold microdilution method; assay type: functional
Staphylococcus aureus [37] = test: Antibacterial activity against methicillin-resistant Staphylococcus aureus ATCC 43300 after 20 to 24 hrs by two-fold microdilution method; assay type: functional
Staphylococcus aureus [38] = test: Antibacterial activity against methicillin-resistant Staphylococcus aureus 504008 clinical isolate after 20 to 24 hrs by two-fold microdilution method; assay type: functional
[39] = test system: Staphylococcus haemolyticus; test: Antibacterial activity against Staphylococcus haemolyticus CICC 10373 after 20 to 24 hrs by two-fold microdilution method; assay type: functional
Staphylococcus aureus [40] = test: Antibacterial activity against methicillin-resistant Staphylococcus aureus 531026 clinical isolate after 20 to 24 hrs by two-fold microdilution method; assay type: functional
Staphylococcus aureus [41] = test: Antibacterial activity against methicillin-resistant Staphylococcus aureus 519238 clinical isolate after 20 to 24 hrs by two-fold microdilution method; assay type: functional
Streptococcus pneumoniae = test: Antibacterial activity against Streptococcus pneumoniae ATCC 6305 after 20 to 24 hrs by two-fold microdilution method; assay type: functional
Staphylococcus aureus [42] = test: Antibacterial activity against methicillin-resistant Staphylococcus aureus 519028 clinical isolate after 20 to 24 hrs by two-fold microdilution method; assay type: functional
Staphylococcus aureus [43] = test: Antibacterial activity against methicillin-resistant Staphylococcus aureus 1024010 clinical isolate after 20 to 24 hrs by two-fold microdilution method; assay type: functional
Staphylococcus aureus [44] = test: Antibacterial activity against methicillin-resistant Staphylococcus aureus 103054 clinical isolate after 20 to 24 hrs by two-fold microdilution method; assay type: functional

O=C1c2cccnc2C(=O)c2c1c(C(=O)OCCCCCCN1CCCCC1)c1ccc(Br)cn21
0.063 µg/mL: MIC (Staphylococcus aureus [1]) | MIC (Staphylococcus aureus [3]) | MIC (Staphylococcus aureus [7]) | MIC (Staphylococcus aureus [9]) | MIC (Staphylococcus aureus [10]) | MIC (Staphylococcus aureus [11]) | MIC (Staphylococcus aureus [13]) | MIC (Staphylococcus aureus [15]) | MIC (Staphylococcus aureus [18]) | MIC (Staphylococcus aureus [19]) | MIC (Staphylococcus aureus [20]) | MIC (Staphylococcus aureus [21]) | MIC (Staphylococcus aureus [28]) | MIC (Staphylococcus aureus [31]) | MIC (Staphylococcus aureus [33]) | MIC (Staphylococcus aureus [37]) | MIC (Staphylococcus aureus [38]) | MIC (Staphylococcus aureus [40]) | MIC (Staphylococcus aureus [43])
0.031 µg/mL: MIC (Staphylococcus aureus [2]) | MIC (Staphylococcus aureus [5]) | MIC (Staphylococcus aureus [6]) | MIC (Staphylococcus aureus [24]) | MIC (Staphylococcus aureus [25]) | MIC (Staphylococcus aureus [34]) | MIC (Staphylococcus aureus [44])
1980 µg/mL: solubility thermodynamic at 4 h [29]
0.125 µg/mL: MIC (Staphylococcus aureus [17]) | MIC (Staphylococcus aureus [22]) | MIC (Staphylococcus aureus [26]) | MIC (Staphylococcus aureus [27]) | MIC (Staphylococcus aureus [32]) | MIC (Enterococcus faecalis) | MIC [39] | MIC (Staphylococcus aureus [41]) | MIC (Staphylococcus aureus [42])
2 µg/mL: MIC (Escherichia coli)
16 µg/mL: MIC (Staphylococcus aureus [14])
0.016 µg/mL: MIC (Staphylococcus aureus [4]) | MIC (Staphylococcus aureus [30])
0.5 µg/mL: MIC (Streptococcus pneumoniae)
0.25 µg/mL: MIC (Staphylococcus aureus [23]) | MIC (Staphylococcus aureus [36])
≤ 0.0078 µg/mL: MIC (Staphylococcus aureus [8]) | MIC [12] | MIC (Staphylococcus aureus [16]) | MIC (Staphylococcus aureus [35])

CN1CCN(CCCCCCOC(=O)c2c3c(n4cc(Br)ccc24)C(=O)c2ncccc2C3=O)CC1
0.031 µg/mL: MIC (Staphylococcus aureus [7]) | MIC (Staphylococcus aureus [16]) | MIC (Staphylococcus aureus [44])
4 µg/mL: MIC (Escherichia coli)
≤ 0.0078 µg/mL: MIC (Staphylococcus aureus [6]) | MIC [12] | MIC (Staphylococcus aureus [27]) | MIC (Staphylococcus aureus [37])
> 16 µg/mL: MIC (Staphylococcus aureus [14])
1 µg/mL: MIC (Staphylococcus aureus [40])
0.5 µg/mL: MIC (Staphylococcus aureus [31]) | MIC (Staphylococcus aureus [32]) | MIC (Staphylococcus aureus [36]) | MIC (Streptococcus pneumoniae)
0.25 µg/mL: MIC (Staphylococcus aureus [1]) | MIC (Staphylococcus aureus [8]) | MIC (Staphylococcus aureus [13]) | MIC (Staphylococcus aureus [17]) | MIC (Staphylococcus aureus [24]) | MIC (Staphylococcus aureus [26]) | MIC (Staphylococcus aureus [33]) | MIC (Enterococcus faecalis) | MIC (Staphylococcus aureus [41])
2060 µg/mL: solubility thermodynamic at 4 h [29]
0.063 µg/mL: MIC (Staphylococcus aureus [3]) | MIC (Staphylococcus aureus [11]) | MIC (Staphylococcus aureus [18]) | MIC (Staphylococcus aureus [20]) | MIC (Staphylococcus aureus [25]) | MIC (Staphylococcus aureus [28]) | MIC (Staphylococcus aureus [30]) | MIC (Staphylococcus aureus [34]) | MIC (Staphylococcus aureus [35]) | MIC [39]
0.125 µg/mL: MIC (Staphylococcus aureus [2]) | MIC (Staphylococcus aureus [4]) | MIC (Staphylococcus aureus [5]) | MIC (Staphylococcus aureus [9]) | MIC (Staphylococcus aureus [10]) | MIC (Staphylococcus aureus [15]) | MIC (Staphylococcus aureus [19]) | MIC (Staphylococcus aureus [21]) | MIC (Staphylococcus aureus [22]) | MIC (Staphylococcus aureus [23]) | MIC (Staphylococcus aureus [38]) | MIC (Staphylococcus aureus [42]) | MIC (Staphylococcus aureus [43])

CN(C)CCCCCOC(=O)c1c2c(n3cc(Br)ccc13)C(=O)c1ncccc1C2=O
Insoluble: solubility ([29]; buffer, 4 h)
1 µg/mL: MIC (Escherichia coli) | MIC (Staphylococcus aureus [41])
0.125 µg/mL: MIC (Staphylococcus aureus [3]) | MIC (Staphylococcus aureus [6]) | MIC (Staphylococcus aureus [8]) | MIC (Staphylococcus aureus [16]) | MIC (Staphylococcus aureus [18]) | MIC (Staphylococcus aureus [19]) | MIC (Staphylococcus aureus [20]) | MIC (Staphylococcus aureus [21]) | MIC (Staphylococcus aureus [23]) | MIC (Staphylococcus aureus [24]) | MIC (Staphylococcus aureus [25]) | MIC (Staphylococcus aureus [35]) | MIC (Enterococcus faecalis) | MIC (Staphylococcus aureus [42])
16 µg/mL: MIC (Staphylococcus aureus [14])
0.25 µg/mL: MIC (Staphylococcus aureus [5]) | MIC (Staphylococcus aureus [11]) | MIC (Staphylococcus aureus [13]) | MIC (Staphylococcus aureus [22]) | MIC (Staphylococcus aureus [28]) | MIC (Staphylococcus aureus [34]) | MIC [39] | MIC (Staphylococcus aureus [43])
0.5 µg/mL: MIC (Staphylococcus aureus [1]) | MIC (Staphylococcus aureus [2]) | MIC (Staphylococcus aureus [4]) | MIC (Staphylococcus aureus [7]) | MIC (Staphylococcus aureus [9]) | MIC (Staphylococcus aureus [10]) | MIC (Staphylococcus aureus [15]) | MIC (Staphylococcus aureus [17]) | MIC (Staphylococcus aureus [26]) | MIC (Staphylococcus aureus [27]) | MIC (Staphylococcus aureus [30]) | MIC (Staphylococcus aureus [31]) | MIC (Staphylococcus aureus [32]) | MIC (Staphylococcus aureus [33]) | MIC (Staphylococcus aureus [36]) | MIC (Staphylococcus aureus [38]) | MIC (Staphylococcus aureus [40]) | MIC (Streptococcus pneumoniae) | MIC (Staphylococcus aureus [44])
≤ 0.0078 µg/mL: MIC [12] | MIC (Staphylococcus aureus [37])
